From patent USH1996H, “Insecticidal photostable acid salt derivatives of N-benzyl-4-benzhydrolpiperidines” (FMC Corporation, priority 1998, dated 2001)
Where a name gives a salt, the structure may show the parent alone.

Tests used:
[1] = photostability under Suntest CPS illuminator (filtered xenon lamp), HPLC; format: physicochemical; details: photodegradation of thin film on glass coverslips, simulated sunlight (xenon lamp), about 25 °C, 0-96 hours
Description: Compounds of the present invention were subjected to determinations of their photostability in side-by-side tests with their non-ionic parent analogs. These photostability tests are conducted as follows:
For each compound tested, four glass microscope coverslips (12 mm in diameter) for each illumination period (0, 3, 6, 12, 24, 48, and 96 hours) are spotted with 10 microliters of a one mg/mL acetonitrile or methanol solution of test compound. The solutions are allowed to evaporate leaving a thin film of test compound on each coverslip. The four coverslips representing the zero hour illumination period are placed in a 20 mL scintillation vial. In the vile is placed one mL of acetonitrile, which extracts the test chemical from the coverslip. The solution is then transferred to a two dram vile for analysis by HPLC. The average HPLC peak area generated by this sample defines the initial level of test compound. The remaining coverslips are then placed in the water-cooled chamber of the exposure platform of a Suntest CPS illuminator (Heraeus Instruments GmbH; Bereich Original Hanau, Hersaeusstrasse R-14, Postfach 1563, D-6450 Hanau 1). The exposure platform is covered with a quartz plate and maintained at about 25° C. for the duration of the test. The Suntest CPS illuminator employs a filtered xenon lamp, which provides illumination of a similar spectrum and intensity as sunlight. Four coverslips for each test compound are removed from the illuminator at the end of each illumination period described above. The four coverslips from each of the illumination periods are treated as described above and the acetonitrile extract is analyzed by HPLC. The average HPLC peak area from each of the illumination periods represents a diminished amount of test compound when compared to the initial level of test compound as determined from the zero hour illumination sample. The percents of test compound remaining from each of these illumination periods are used to generate a degradation curve from which a half life in hours is determined for each test compound.

[2] = system: tobacco budworm (Heliothis virescens [Fabricius]); experiment: insecticidal activity against tobacco budworm, treated artificial diet surface; format: in vivo; details: 0.0025 millimoles on the surface of the diet; second instar larvae; five-day exposure; 7200 min
Description: Candidate insecticides are evaluated for activity against tobacco budworm (Heliothis virescens [Fabricius]) by applications to the surface of a wheat germ-based artificial insect diet. Solutions of the candidate insecticides are prepared for testing by diluting a standard 50 millimolar DMSO solution of each candidate insecticide with DMSO, then further diluting with a 1:1 water/acetone solution (V/V). Forty microliters of this solution of calculated concentration is then pipetted onto the surface of the diet in each of six containers, to provide six replicates for each rate of application. Once treated, the contents of the containers are allowed to dry, leaving the calculated concentration ( in millimoles) of candidate insecticide on the surface of the diet. In each container is placed one second instar tobacco budworm […]. The container is sealed with a transparent film, and then held in a growth chamber for five days. After the five-day exposure period the insecticidal activity of the candidate insecticide is recorded as percent mortality when compared to the total number of insects infested. Insecticidal activity at a concentration of candidate insecticide of 0.0025 millimoles on the surface of the diet is given for various compounds of this invention in Table 4.

Row | Compound | Half-life [1] [h] | Percent Mortality [2] [%]
1 | CCn1nnc(-c2ccc(C[N+]3([O-])CCC(C(O)(c4ccc(C(F)(F)F)cc4)c4ccc(C(F)(F)F)cc4)CC3)cc2)n1 (centres unmarked) [Compound 33, N-[4-(2-ethyl-2H-tetrazol-5-yl)phenylmethyl]-4-[bis(4-trifluoro-methylphenyl)hydroxymethyl]piperidine N-oxide ethanesulfonic acid salt] | 34.0 | 
2 | CCn1nnc(-c2ccc(C[N+]3([O-])CCC(C(O)(c4ccc(C(F)(F)F)cc4)c4ccc(C(F)(F)F)cc4)CC3)cc2)n1 (centres unmarked) [B, N-[4-(2-ethyl-2H-tetrazol-5-yl)phenylmethyl]-4-[bis(4-trifluoromethylphenyl)hydroxymethyl]piperidine N-oxide, reference compound] | 13.9 | 
3 | CCn1nnc(-c2ccc(CN3CCC(C(O)(c4ccc(C(F)(F)F)cc4)c4ccc(C(F)(F)F)cc4)CC3)cc2)n1 [A, reference compound] | 5.5 | 
4 | COC(=O)Nc1ccc(C[N+]2([O-])CCC(C(O)(c3ccc(OC(F)(F)F)cc3)c3ccc(OC(F)(F)F)cc3)CC2)cc1 (centres unmarked) [Compound 16] |  | 100
5 | CCn1nnc(-c2ccc(CN3CCC(C(O)(c4ccc(C(F)(F)F)cc4)c4ccc(C(F)(F)F)cc4)CC3)cc2)n1 [Compound 7] | 23.0 | 
